In US12162857B2, “Antiviral compounds” (priority 2022, dated 2024):

The molecules below were run on Human RSV-A (“Long” strain) (assay: RSV-A assay: CPE in Hep-2 cells, ATPlite readout). Conditions: human respiratory syncytial virus, 120 h, MOI 0.1, 5-day incubation.
Assay type: cell-based
Description: Hep-2 cells, (originally derived from tumors grown in irradiated-cortisonised weanling rats that had been injected with epidermoid carcinoma tissue from a person's larynx, but later found to be indistinguishable from HeLa cells by PCR DNA analysis), were used for the culturing of genotype A, “Long” strain RSV. Flasks were inoculated with RSV and viral stocks were collected once cytopathic effect (CPE) was greater than 90%. Viral stocks in 25% sucrose media were snap frozen using liquid nitrogen to increase viral stability. Viral stock titers were quantified by tissue culture infectious dose 50% (TCID50) using 8,000 cells per well and 3-fold viral dilutions across a 96-well plate, cultured for 4 days. Viral stock titers were also quantified by a plaque forming unit assay, as described elsewhere.
Following extensive parameter testing, the final assay is run as follows: Hep-2 cells are seeded into the inner 60 wells of a 96-well plate at 8,000 cells per well in a volume of 50 μL using Growth Media (DMEM without phenol red, 1% L-Glut, 1% Penn/Strep, 1% nonessential amino acids, 10% heat-inactivated FBS). 2-fold serial dilutions of control and test compounds are added to the wells in duplicate in a total volume of 25 μL. Viral stock is then added to the wells at a multiplicity of infection (MOI) of 0.1 in a volume of 25 μL, bringing the total volume of each well to 100 μL. The MOI is calculated using the PFU/mL, or TCID50 if unavailable. Each 96-well plate has a control column of 6 wells with cells and virus but no compound (negative control, max CPE), a column with cells but no compound or virus (positive control, minimum CPE), and a column with no cells or virus or compound (background plate/reagent control). The control wells with cells but no virus are given an additional 25 μL of growth media containing an equal quantity of sucrose as those wells receiving the viral stock in order to keep consistent in media and volume conditions. The outer wells of the plate are filled with 125 μL of moat media (DMEM, 100 Penn/Strep) to act as a thermal and evaporative moat around the test wells. Following a 5-day incubation period, the plates are read using ATPlite (50 uL added per well), which quantifies the amount of ATP (a measure of cell health) present in each well. Assay plates are read using the Envision luminometer. […] EC50 ranges are as follows: A<0.01 μM; B 0.01-0.05 μM; C>0.05 μM.

| EC50 [nM] | SMILES |
| --- | --- |
| 10 to 50 | NC(=O)C(F)(F)c1cc([C@@](O)(CNC(=O)c2cc(OC3CC3)c3nn(C4CC4)cc3c2)C2CC2)nc(-c2ccc(F)c(Cl)c2F)c1F (single isomer, unassigned) [Example 36] |
| > 50 | COc1cc(C(=O)NC[C@](O)(c2cc(C(F)(F)C(N)=O)c(F)c(-c3ccc(F)c(Cl)c3F)n2)C2CC2)cc2cc(Cl)c(C)nc12 (single isomer, unassigned) [Example 35] |
| < 10 | COc1cc(C(=O)NC[C@](O)(c2cc(C3(C(N)=O)CC3)cc(-c3ccc(F)c(Cl)c3F)n2)C2CC2)cc2cn(C(F)F)nc12 (single isomer, unassigned) [Example 27] |
| 10 to 50 | COc1cc(C(=O)NC[C@](O)(c2cc(C3(C(N)=O)CC3)c(F)c(-c3cc(Cl)c(F)cc3F)n2)C2CC2)cc2cn(C3(F)CC3)nc12 (single isomer, unassigned) [Example 13] |
| 10 to 50 | COc1cc(C(=O)NC[C@](O)(c2cc(C(F)(F)C(N)=O)c(F)c(-c3ccc(F)c(Cl)c3F)n2)C2CC2)cc2cn(C(F)F)nc12 (single isomer, unassigned) [Example 34] |
| 10 to 50 | COc1cc(C(=O)NC[C@](O)(c2cc(C3(C(N)=O)CC3)c(F)c(-c3cc(Cl)c(F)cc3F)n2)C2CC2)cc2cn(C3CC3)nc12 (single isomer, unassigned) [Example 11] |

What follows are molecules tested on HMPV A2 TN/94-49 (assay: HMPV antiviral assay: LLC-MK2 cells, ATP-Lite readout). Conditions: LLC-MK2, 168 h, MOI 0.005, 7 days incubation.
Assay type: cell-based
Experimental: In vitro HMPV antiviral activity was evaluated using the clinical isolate A2 strain TN 94-49 and LLC-MK2 cells (ATCC #CCL-7), an immortalized kidney epithelial cell line from Macaca mulatta. Compounds were resuspended in dimethyl sulfoxide (DMSO) at 10 mM, serially diluted and added to a 384-well source plate. Subsequently, the compounds were diluted and transferred onto 384-well assay plates using the Echo-650 automated liquid handling system (Beckman Coulter, Indiana). The test compounds were assessed in duplicate at a top concentration of 2 μM followed by 2.5-fold serial dilutions to give a total of 10 concentration points. DMSO control wells were also included on the assay plates and were either infected or not, acting as positive and negative controls. A2 TN 94-49 virus infections were performed in-suspension with LLC-MK2 cells. The cells were washed twice with PBS and removed from the cell-culture flask with 0.25% trypsin-EDTA (Thermo Fisher Scientific, MA). The trypsin-EDTA was inactivated by resuspending in 2% fetal bovine serum (FBS) and OptiMEM (ThermoFisher Scientific, MA) containing 1% penicillin-streptomycin. Cells were pelleted by centrifuging for 5 minutes at 800 rpm, the supernatant was removed, and cells were re-suspended and washed in PBS plus 100 μg/mL CaCl2). This step was performed twice. Cells were then re-suspended in serum-free (SF)-OptiMEM containing 4 μg/mL TPCK-Trypsin (Sigma Aldrich, MO), 1% penicillin-streptomycin (ThermoFisher Scientific, MA) and 100 μg/mL CaCl2). Cells were counted and seeded at a density of 5,000 cells/well, 12.5 μL/well. Virus infections were done at a multiplicity of infection (MOI) of 0.005 with 12.5 μL added per well. Virus infections were performed in infection media which contained SF-OptiMEM, 100 μg/mL CaCl2) and 1% penicillin-streptomycin. HMPV viral stocks are suspended in infection media+5% glycerol, thus an equal volume of infection media+5% glycerol was added to uninfected wells to equalize the final % glycerol across all wells of the assay plate. The final concentration of TPCK-trypsin was 2 μg/mL. The assay plates were incubated at 37° C., 5% CO2 for 7 days. After 7 days incubation, 12.5 μL of ATP-Lite (PerkinElmer, MA) was added to each well and the raw luminescence values were determined using the Envision 2104 (Perkin Elmer, MA). The average of the raw luminescence values for the cells and virus only positive control wells was subtracted from all conditions tested and the percent cell health was determined by dividing these values by the average of the cells only negative control wells. EC50 values were then calculated by non-linear regression using a four-parameter curve logistic equation. The curve fit model employed was XLFit Dose Response One Site Model 200: y=(A+(B/(1+((x/C)^D)))), where A is the minimum y value, B is the maximum y value, C is the log EC50 value, and D is the slope factor. […] EC50 ranges are as follows: A<1 μM; B>1 μM.

| EC50 [nM] | SMILES |
| --- | --- |
| < 1000 | COc1cc(C(=O)NC[C@@](O)(c2cccc(F)c2)c2cc(C(C)(C)O)c(F)c(-c3cccc(Cl)c3Cl)n2)cc2cn(C(F)F)nc12 [Example 99] |
| < 1000 | COc1cc(C(=O)NC[C@@](O)(c2cccc(F)c2)c2cc(C(C)(C)O)c(F)c(-c3cc(Cl)c(F)cc3F)n2)cc2cn(C3CC3)nc12 [Example 90] |
| > 1000 | COc1cc(C(=O)NC[C@](O)(c2cc(C(C)(C)F)c(F)c(-c3cc(Cl)c(F)cc3F)n2)C2CC2)cc2cc(C3CC3)nn12 [Example 178] |
| < 1000 | COc1cc(C(=O)NC[C@@](O)(c2cccc(F)c2)c2cc(C(C)(C)O)c(F)c(-c3cccc(Cl)c3Cl)n2)cc2cc(C3CC3)nn12 [Example 101] |
| < 1000 | COc1cc(C(=O)NC[C@](O)(c2cc(C(C)(C)O)c(F)c(-c3ccc(F)c(Cl)c3F)n2)C2CC2)cc2cn(C3(F)CC3)nc12 [Example 120] |
| < 1000 | COc1cc(C(=O)NC[C@@](O)(c2ccccc2)c2cc(C(C)(C)O)c(F)c(-c3ccc(F)c(F)c3F)n2)cc2cn(C3CC3)nc12 [Example 84] |
| < 1000 | [2H]C([2H])([2H])C(O)(c1cc([C@@](O)(CNC(=O)c2cc(OC)c3nn(C4CC4)cc3c2)C2CC2)nc(-c2cc(Cl)c(F)cc2F)c1F)C([2H])([2H])[2H] [Example 186] |
| < 1000 | COc1cc(C(=O)NC[C@@](O)(c2cccc(F)c2)c2cc(C(C)(C)O)c(F)c(-c3cc(Cl)c(F)cc3F)n2)cc2cn(C(F)F)nc12 [Example 92] |
| < 1000 | COc1cc(C(=O)NC[C@@](O)(c2ccccc2)c2cc(C(C)(C)O)c(Cl)c(-c3ccc4c(c3Cl)OC(F)(F)O4)n2)cc2cc(C3CC3)nn12 [Example 155] |
| < 1000 | CC(C)(O)c1cc(-c2ccc(F)c(Cl)c2Cl)nc([C@@](O)(CNC(=O)c2cc(Cl)c3nn(C4CC4)cc3c2)c2ccccc2)c1 [Example 153] |
| > 1000 | CC(C)(O)c1cc([C@@](O)(CNC(=O)c2cc(Cl)c3nn(C4CC4)cc3c2)c2ccccc2)nc(-c2cccc(Cl)c2Cl)c1Cl [Example 141] |
| > 1000 | COc1cc(C(=O)NC[C@](O)(c2ccc(F)c(-c3cc(Cl)c(F)cc3F)n2)C2CC2)cc2cc(Cl)c(C)nc12 [Example 176] |
| < 1000 | COc1cc(C(=O)NC[C@@](O)(c2ccccc2)c2cc(C(C)(C)O)c(F)c(-c3cc(Cl)c(F)cc3F)n2)cc2cn(C3(F)CC3)nc12 [Example 61] |
| < 1000 | COc1cc(C(=O)NC[C@](O)(c2cc(C(C)(C)O)c(F)c(-c3cc(Cl)c(F)cc3F)n2)c2nccs2)cc2cn(C3CC3)nc12 [Example 58] |
| > 1000 | COc1cc(C(=O)NC[C@@](O)(c2ccccc2)c2cc(C(C)(C)O)c(Cl)c(-c3cccc(Cl)c3Cl)n2)cc2cn(C3CC3)nc12 [Example 140] |
| > 1000 | COc1cc(C(=O)NC[C@](O)(c2cc(C3(O)COC3)c(F)c(-c3cc(Cl)c(F)cc3F)n2)C2CC2)cc2cn(C3(F)CC3)nc12 [Example 168] |
| < 1000 | COc1cc(C(=O)NC[C@@](O)(c2cccc(F)c2)c2cc(C(C)(C)O)c(F)c(-c3ccc(F)c(Cl)c3Cl)n2)cc2sc(C)nc12 [Example 107] |
| < 1000 | COc1cc(C(=O)NC[C@@](O)(c2cccc(F)c2)c2cc(C(C)(C)O)c(F)c(-c3ccc4c(c3Cl)OC(F)(F)O4)n2)cc2cn(C(F)F)nc12 [Example 111] |
| < 1000 | CC(C)(O)c1cc([C@@](O)(CNC(=O)c2cc(Cl)c3nn(C4CC4)cc3c2)c2cccc(F)c2)nc(-c2ccc(F)c(Cl)c2Cl)c1F [Example 105] |
| < 1000 | COc1cc(C(=O)NC[C@@](O)(c2ccccc2)c2cc(C(C)(C)O)c(F)c(-c3cccc(Cl)c3Cl)n2)cc2sc(C)nc12 [Example 78] |
| < 1000 | COc1cc(C(=O)NC[C@@](O)(c2ccccc2)c2cc(C(C)(C)O)c(F)c(-c3cc(Cl)c(F)cc3F)n2)cc2cn(C3CC3)nc12 [Example 60] |
| < 1000 | COc1cc(C(=O)NC[C@@](O)(c2cccc(F)c2)c2cc(C(C)(C)O)c(F)c(-c3ccc4c(c3Cl)OC(F)(F)O4)n2)cc2cc(C3CC3)nn12 [Example 112] |
| < 1000 | COc1cc(C(=O)NC[C@@](O)(c2cccc(F)c2)c2cc(C(C)(C)O)c(F)c(-c3ccc4c(c3Cl)OC(F)(F)O4)n2)cc2cn(C3CC3)nc12 [Example 109] |
| < 1000 | COc1cc(C(=O)NC[C@@](O)(c2cccc(F)c2)c2cc(C(C)(C)O)c(F)c(-c3ccc(F)c(Cl)c3Cl)n2)cc2cn(C(F)F)nc12 [Example 104] |
| < 1000 | [2H]C([2H])([2H])C(O)(c1cc([C@@](O)(CNC(=O)c2cc(OC)n3nc(C4CC4)cc3c2)C2CC2)nc(-c2cc(Cl)c(F)cc2F)c1F)C([2H])([2H])[2H] [Example 187] |
| < 1000 | COc1cc(C(=O)NC[C@@](O)(c2ccccc2)c2cc(C(C)(C)O)cc(-c3cccc(Cl)c3Cl)n2)cc2cn(C3CC3)nc12 [Example 148] |
| > 1000 | CC(C)(O)c1cc([C@@](O)(CNC(=O)c2cc(Cl)c3nn(C4CC4)cc3c2)c2ccccc2)nc(-c2ccc3c(c2)OC(F)(F)O3)c1F [Example 77] |
| < 1000 | COc1cc(C(=O)NC[C@@](O)(c2cccc(F)c2)c2cc(C(C)(C)O)c(F)c(-c3cc(Cl)c(F)cc3F)n2)cc2cc(C3CC3)nn12 [Example 93] |
| < 1000 | CC(C)(O)c1cc([C@@](O)(CNC(=O)c2cc(Cl)c3nn(C4CC4)cc3c2)c2cccc(F)c2)nc(-c2cc(F)c(F)cc2F)c1F [Example 97] |
